Laboratory results published in patent publication US20210238225A1, “PEPTIDOMIMETIC INHIBITORS OF THE PEPTIDYL-PROLYL CIS/TRANS ISOMERASE (PIN1)” (DANA-FARBER CANCER INSTITUTE, INC., priority 2018, published 2021).
Like-named read-outs stand apart in the source and are kept apart here. Non-standard residues stand in square brackets, D forms with d. Residues, ends and D or L forms follow the SMILES beside them. *: point of attachment. Ala(9-anthryl) = N[C@@H](Cc1c2ccccc2cc2ccccc12)C(=O)O; alloThr(PO3H2) = C[C@H](OP(=O)(O)O)[C@H](N)C(=O)O; Phe(F5) = N[C@@H](Cc1c(F)c(F)c(F)c(F)c1F)C(=O)O; Phe(4-F) = N[C@@H](Cc1ccc(F)cc1)C(=O)O; 2Nal = N[C@@H](Cc1ccc2ccccc2c1)C(=O)O; Met(O2) = CS(=O)(=O)CC[C@H](N)C(=O)O; X2 = C[C@H]1NC(=O)N[C@H]1CCCCCC(=O)*; Bta = N[C@@H](Cc1csc2ccccc12)C(=O)O; NH(4-Me-benzyl) = Cc1ccc(CN*)cc1; NMeF = CN[C@@H](Cc1ccccc1)C(=O)O; hPhe = N[C@@H](CCc1ccccc1)C(=O)O; Cit = NC(=O)NCCC[C@H](N)C(=O)O; Pip = O=C(O)[C@@H]1CCCCN1; Piperidide = C1CCN(*)CC1; ClAc = O=C(CCl)*; X1 = O=C(C1CO1)*

Molecular target: Pin1 (GST-Pin1) (Homo sapiens, UniProt Q13526)
Sequence (Q13526 whole entry): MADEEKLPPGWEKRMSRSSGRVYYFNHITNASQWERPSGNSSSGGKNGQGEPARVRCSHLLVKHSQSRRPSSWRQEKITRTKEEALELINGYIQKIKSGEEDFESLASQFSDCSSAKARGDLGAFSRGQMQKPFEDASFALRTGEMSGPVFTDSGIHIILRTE
Assay: Fluorescence polarization (FP) assay, binding to Pin1
Settings: competition with fluorescein-labeled peptide probe, 12 hours pre-incubation at 4° C., Kenakin Ki equation

SMILES | Ki (read-out: Ki, μM (FP Assay)) [µM] | Ki (Ki, μM (FP Assay)) [µM]
NC(=O)NCCC[C@H](NC(=O)[C@H](Cc1c[nH]c2ccccc12)NC(=O)[C@@H]1CCCCN1C(=O)[C@H](CCc1ccccc1)NC(=O)CCl)C(=O)N1CCCCC1 [Compound 11-40, (S)—N—((S)-3-(1H-Indol-3-yl)-1-oxo-1-(((S)-1-oxo-1-(piperidin-1-yl)-5-ureidopentan-2-yl)amino)propan-2-yl)-1-((S)-2-(2-chloroacetamido)-4-phenylbutanoyl)piperidine-2-carboxamide] (ClAc-[hPhe][Pip]W[Cit]-Piperidide) |  | 0.087
COC(=O)CC[C@H](NC(=O)CCl)C(=O)N1CCCC[C@H]1C(=O)N[C@@H](Cc1c[nH]c2ccccc12)C(=O)N[C@@H](Cc1ccc(O)cc1)C(=O)NCc1ccc(C)cc1 (single isomer, unassigned) [Compound 11-26] | > 10 | 
NC(=O)CC[C@H](NC(=O)[C@H](Cc1ccc2ccccc2c1)NC(=O)[C@@H]1CCCCN1C(=O)[C@@H](CCC(=O)O)NC(=O)CCl)C(N)=O [Compound 2b-4, (R)-4-(2-Chloroacetamido)-5-((S)-2-(((S)-1-(((S)-1,5-diamino-1,5-dioxopentan-2-yl)amino)-3-(naphthalen-2-yl)-1-oxopropan-2-yl)carbamoyl)piperidin-1-yl)-5-oxopentanoic acid] (ClAc-[dE][Pip][2Nal]Q-NH2) | > 10 | 
COC(=O)CC[C@H](NC(=O)CCl)C(=O)N1CCCC[C@H]1C(=O)N[C@@H](Cc1csc2ccccc12)C(=O)N[C@@H](Cc1ccc(F)cc1)C(=O)NCc1ccc(C)cc1 [Compound 11-22, Methyl (S)-5-((S)-2-(((S)-3-(benzo[b]thiophen-3-yl)-1-(((S)-3-(4-fluorophenyl)-1-((4-methylbenzyl)amino)-1-oxopropan-2-yl)amino)-1-oxopropan-2-yl)carbamoyl)piperidin-1-yl)-4-(2-chloroacetamido)-5-oxopentanoate] (ClAc-E(OMe)[Pip][Bta][Phe(4-F)]-{NH(4-Me-benzyl)}) |  | > 10
C[C@H](NC(=O)[C@H](C)NC(=O)[C@H](CCCNC(N)=O)NC(=O)[C@H](Cc1c[nH]c2ccccc12)NC(=O)[C@@H]1CCCCN1C(=O)[C@H](CCC(=O)O)NC(=O)CCl)C(=O)N[C@@H](CCCCNC(=O)CCCCC[C@@H]1NC(=O)N[C@@H]1C)C(N)=O [Compound 2c-1, (S)-5-((S)-2-(((2S,5S,8S,11S)-14-Carbamoyl-1-(1H-indol-3-yl)-8,11-dimethyl-25-((4S,5R)-5-methyl-2-oxoimidazolidin-4-yl)-3,6,9,12,20-pentaoxo-5-(3-ureidopropyl)-4,7,10,13,19-pentaazapentacosan-2-yl)carbamoyl)piperidin-1-yl)-4-(2-chloroacetamido)-5-oxopentanoic acid] (ClAc-E[Pip]W[Cit]AAK(X2)-NH2) | 0.04 | 
CN(C(=O)CCl)[C@@H](Cc1ccccc1)C(=O)N1CCCC[C@H]1C(=O)N[C@@H](Cc1c[nH]c2ccccc12)C(=O)N[C@@H](CCc1ccccc1)C(=O)N1CCCCC1 [Compound 11-44, (S)—N—((S)-3-(1H-Indol-3-yl)-1-oxo-1-(((S)-1-oxo-4-phenyl-1-(piperidin-1-yl)butan-2-yl)amino)propan-2-yl)-1-(N-(2-chloroacetyl)-N-methyl-L-phenylalanyl)piperidine-2-carboxamide] (ClAc-[NMeF][Pip]W[hPhe]-Piperidide) | 1.5 | 
Cc1ccc(CNC(=O)[C@H](CCCNC(N)=O)NC(=O)[C@H](Cc2c[nH]c3ccccc23)NC(=O)[C@@H]2CCCCN2C(=O)[C@H](CCS(C)(=O)=O)NC(=O)CCl)cc1 [Compound 11-11, (S)—N—((S)-3-(1H-Indol-3-yl)-1-(((S)-1-((4-methylbenzyl)amino)-1-oxo-5-ureidopentan-2-yl)amino)-1-oxopropan-2-yl)-1-((S)-2-(2-chloroacetamido)-4-(methylsulfonyl)butanoyl)piperidine-2-carboxamide] (ClAc-[Met(O2)][Pip]W[Cit]-{NH(4-Me-benzyl)}) | 0.17 | 
COC(=O)CC[C@H](NC(=O)CCl)C(=O)N1CCCC[C@H]1C(=O)N[C@@H](Cc1c[nH]c2ccccc12)C(=O)N[C@@H](Cc1c(F)c(F)c(F)c(F)c1F)C(=O)NCc1ccc(C)cc1 [Compound 11-25, Methyl (S)-5-((S)-2-(((S)-3-(1H-indol-3-yl)-1-(((S)-1-((4-methylbenzyl)amino)-1-oxo-3-(perfluoro-phenyl)propan-2-yl)amino)-1-oxopropan-2-yl)carbamoyl)piperidin-1-yl)-4-(2-chloroacetamido)-5-oxopentanoate] (ClAc-E(OMe)[Pip]W[Phe(F5)]-{NH(4-Me-benzyl)}) |  | > 10
COC(=O)CC[C@H](NC(=O)CCl)C(=O)N1CCCC[C@H]1C(=O)N[C@@H](Cc1c[nH]c2ccccc12)C(=O)N[C@@H](CCCNC(N)=O)C(N)=O [Compound 2, Methyl (S)-5-((S)-2-(((S)-1-(((S)-1-amino-1-oxo-5-ureidopentan-2-yl)amino)-3-(1H-indol-3-yl)-1-oxopropan-2-yl)carbamoyl)piperidin-1-yl)-4-(2-chloroacetamido)-5-oxopentanoate] (ClAc-E(OMe)[Pip]W[Cit]-NH2) | 0.074 | 
Cc1ccc(CNC(=O)[C@H](CCCNC(N)=O)NC(=O)[C@H](Cc2c[nH]c3ccccc23)NC(=O)[C@@H]2CCCCN2C(=O)[C@H](Cc2ccccc2)NC(=O)C2CO2)cc1 (stereo partly drawn) [Compound 13, (2S)—N—((S)-3-(1H-Indol-3-yl)-1-(((S)-1-((4-methylbenzyl)amino)-1-oxo-5-ureidopentan-2-yl)amino)-1-oxopropan-2-yl)-1-((oxirane-2-carbonyl)-L-phenylalanyl)piperidine-2-carboxamide] (X1-F[Pip]W[Cit]-{NH(4-Me-benzyl)}) | 4.43 | 
N=C(N)NCCC[C@H](NC(=O)[C@H](Cc1c2ccccc2cc2ccccc12)NC(=O)[C@@H]1CCCCN1C(=O)[C@H](CCC(=O)O)NC(=O)CCl)C(N)=O [Compound 2b-11, (S)-5-((S)-2-(((S)-1-(((S)-1-Amino-5-guanidino-1-oxopentan-2-yl)amino)-3-(anthracen-9-yl)-1-oxopropan-2-yl)carbamoyl)piperidin-1-yl)-4-(2-chloroacetamido)-5-oxopentanoic acid] (ClAc-E[Pip][Ala(9-anthryl)]R-NH2) | 0.609 | 
C[C@H]1NC(=O)N[C@H]1CCCCCC(=O)NCCCC[C@H](NC(=O)[C@H](CCCNC(N)=O)NC(=O)[C@H](Cc1c[nH]c2ccccc12)NC(=O)[C@@H]1CCCCN1C(=O)[C@H](CCC(=O)O)NC(=O)CCl)C(N)=O [Compound 2c-2, (S)-5-((S)-2-(((S)-1-(((S)-1-(((S)-1-Amino-6-(6-((4S,5R)-5-methyl-2-oxoimidazolidin-4-yl)hexanamido)-1-oxohexan-2-yl)amino)-1-oxo-5-ureidopentan-2-yl)amino)-3-(1H-indol-3-yl)-1-oxopropan-2-yl)carbamoyl)piperidin-1-yl)-4-(2-chloroacetamido)-5-oxopentanoic acid] (ClAc-E[Pip]W[Cit]K(X2)-NH2) |  | 0.03

Further lines, with some results ahead:

Ki (read-out: Ki, μM (FP Assay)) [µM] | SMILES | Ki (Ki, μM (FP Assay)) [µM]
> 10 | COC(=O)CC[C@H](NC(=O)C1CO1)C(=O)N1CCCC[C@H]1C(=O)N[C@@H](Cc1c[nH]c2ccccc12)C(=O)N[C@@H](CCCNC(N)=O)C(=O)NCc1ccc(C)cc1 (stereo partly drawn) [Compound 11-12, Methyl (4S)-5-((S)-2-(((S)-3-(1H-indol-3-yl)-1-(((S)-1-((4-methylbenzyl)amino)-1-oxo-5-ureido-pentan-2-yl)amino)-1-oxopropan-2-yl)carbamoyl)piperidin-1-yl)-4-(oxirane-2-carboxamido)-5-oxopentanoate] (X1-E(OMe)[Pip]W[Cit]-{NH(4-Me-benzyl)}) | 
> 10 | COC(=O)CC[C@H](NC(C)=O)C(=O)N1CCCC[C@H]1C(=O)N[C@@H](Cc1c[nH]c2ccccc12)C(=O)N[C@@H](Cc1ccc(F)cc1)C(=O)NCc1ccc(C)cc1 [Compound 11-30, Methyl (S)-4-acetamido-5-((S)-2-(((S)-1-(((S)-3-(4-fluorophenyl)-1-((4-methylbenzyl)-amino)-1-oxopropan-2-yl)amino)-3-(1H-indol-3-yl)-1-oxopropan-2-yl)carbamoyl)piperidin-1-yl)-5-oxopentanoate] (Ac-E(OMe)[Pip]W[Phe(4-F)]-{NH(4-Me-benzyl)}) | 
0.028 | Cc1ccc(CNC(=O)[C@H](CCCNC(N)=O)NC(=O)[C@H](Cc2csc3ccccc23)NC(=O)[C@@H]2CCCCN2C(=O)[C@H](Cc2ccccc2)NC(=O)CCl)cc1 [Compound 11-33, (S)—N—((S)-3-(benzo[6]thiophen-3-yl)-1-(((S)-1-((4-methylbenzyl)amino)-1-oxo-5-ureidopentan-2-yl)amino)-1-oxopropan-2-yl)-1-((2-chloroacetyl)-L-phenylalanyl)-piperidine-2-carboxamide] (ClAc-F[Pip][Bta][Cit]-{NH(4-Me-benzyl)}) | 
> 1 | CN(C(=O)CCl)[C@@H](Cc1ccccc1)C(=O)N1CCCC[C@H]1C(=O)N[C@@H](Cc1c[nH]c2ccccc12)C(=O)N1CCCCC1 [Compound 11-45, (S)—N—((S)-3-(1H-indol-3-yl)-1-oxo-1-(piperidin-1-yl)propan-2-yl)-1-(N-(2-chloroacetyl)-N-methyl-L-phenylalanyl)piperidine-2-carboxamide] (ClAc-[NMeF]-[Pip]-Trp-Piperidide) | 
0.525 | COC(=O)CC[C@H](NC(=O)CCl)C(=O)N1CCCC[C@H]1C(=O)N[C@@H](Cc1c[nH]c2ccccc12)C(=O)N[C@@H](Cc1ccc2ccccc2c1)C(N)=O [Compound 2-24, Methyl (S)-5-((S)-2-(((S)-1-(((S)-1-Amino-3-(naphthalen-2-yl)-1-oxopropan-2-yl)amino)-3-(1H-indol-3-yl)-1-oxopropan-2-yl)carbamoyl)piperidin-1-yl)-4-(2-chloroacetamido)-5-oxopentanoate] (ClAc-E(OMe)[Pip]W[2Nal]-NH2) | 
0.13 | C[C@H](OP(=O)(O)O)[C@H](NC(=O)CCl)C(=O)N1CCCC[C@H]1C(=O)N[C@@H](Cc1ccc2ccccc2c1)C(=O)N[C@@H](CCCNC(=N)N)C(N)=O [Compound 2-5, (2S,3S)-4-((S)-2-(((S)-1-(((S)-1-Amino-5-guanidino-1-oxopentan-2-yl)amino)-3-(naphthalen-2-yl)-1-oxopropan-2-yl)carbamoyl)piperidin-1-yl)-3-(2-chloroacetamido)-4-oxobutan-2-yl dihydrogen phosphate] (ClAc-[alloThr(PO3H2)][Pip][2Nal]R-NH2) | 
